{"source": "patent US8523569B2", "about": "“Controlled release local anesthetic for post dental surgery and method of use” (priority 2007, dated 2013)", "origin": "cited, not measured here", "details": "immediate release vasoconstrictor, known to the art", "data": [{"smiles": "CNC[C@H](O)c1ccc(O)c(O)c1", "note": "[epinephrine]", "values": [{"measurement": "prolongation of local anesthetic activity, at best", "value": "≤ 1", "unit": "h"}]}]}
